Patent US9593140B2, “Antibacterial tylosin derivatives and methods for their preparation” (Bayer Intellectual Property GmbH, priority 2011, dated 2017)

What was measured:
Type in all cases: cell-based
[1] = test system: Xanthomonas campestris KB88; assay: Paper disc assay, Xanthomonas campestris (X)
Experimental: (§1) (2) Antibacterial activities against other bacteria were determined with Micrococcus luteus ATCC9341 (1), Bacillus subtilis […] (s), Escherichia coli NIHJ (c), Xanthomonas campestris KB88 (X), Mucor racemosus IFO 4581 (Mu) and Candida albicans ATCC 64548 (Ca).
(§2) Bacillus subtilis ATCC6633 was incubated in Davis synthetic medium and then the seed broth was combined with the medium in the ratio of 1:99 to obtain a test plate. Micrococcus luteus ATCC9341, Escherichia coli NIHJ and Xanthomonas campestris KB88 were respectively incubated in Nutrient agar medium and inoculated at 0.2%, 0.5% and 1.0%. Mucor racemosus IFO 4581 and Candida albicans ATCC 64548 were respectively incubated in GY agar medium and then inoculated at 0.3% and 0.2%.
(§3) A paper disc (ADVANTEC, Φ:6 mm) was impregnated with a solution of test compound and dried under reduced pressure. The paper disc was put on the test plate and it was incubated for 24 hours at 37° C. After incubation, the inhibition zone diameter and clarity (A to E) were determined.

[2] = test system: Micrococcus luteus ATCC9341; assay: Paper disc assay, Micrococcus luteus (l)
Experimental: as §1, §2, §3

[3] = test system: Bacillus subtilis ATCC6633; assay: Paper disc assay, Bacillus subtilis (S)
Experimental: as §1, §2, §3

[4] = test system: Mannhemia hemolytica KB345; assay: Paper disc assay, M. hemolytica KB345 (Tilmicosin-sensitivity strain); conditions: for zone of inhibition at 3 mg/disc / zone of inhibition at 10 mg/disc / zone of inhibition at 30 mg/disc / zone of inhibition at 100 mg/disc / zone of inhibition at 1 mg/disc: 24 h; for zone of inhibition at 1 mg/disc: 1 mg/6 mm disk
Experimental: (§4) (1) Antibacterial Activities Against Mannheimia and Pasteurella were Determined by the Following Steps:
(§5) 1) M. hemolytica KB345 (Tilmicosin-sensitivity strain) and M. hemolytica KB346 (Tilmicosin-low sensitivity strain) were provided. KB 345 strain stored at −80° C. was seeded to BHIB agar medium (10 mL) by using Microbank beads (Pro-Lab) and platinum nail. After statically incubating the KB 345 strain for 24 hours at 37° C., it was seeded to maintaining slant BHIB agar medium (7 mL) by using platinum loop, further statically incubated for 24 hours at 37° C. to obtain slant. One platinum loop of KB 345 strain stored at the slant was inoculated into a large test tube charged with BHIB liquid medium (10 mL) and then incubated for 24 hours at 37° C. with shaking.
(§6) 2) A paper disc (ADVANTEC, Φ:6 mm) was impregnated with a solution of test compound and dried under reduced pressure.
(§7) 3) To a melted BHIB agar medium was inoculated 1% of the broth obtained from step 1) above to prepare a test plate. After the medium set, the paper disc prepared in step 2) above was put on the plate and it was incubated at 37° C.
(§8) 4) After one day, the inhibition zone diameter and clarity (A to E) were determined.

[5] = test system: Mannhemia hemolytica KB346; assay: Paper disc assay, M. hemolytica KB346 (Tilmicosin-low sensitivity strain)
Experimental: as §4, §5, §6, §7, §8
For KB346 strain, the same procedures were repeated.

Compound | Inhibition zone (mm) ([1]; 0.1 mg/6 mm disc) | Inhibition zone (mm) ([1]; 1 mg/6 mm disc) | Inhibition zone (mm) ([1]; 10 mg/6 mm disc) | Inhibition zone (mm) ([2]; 0.1 mg/6 mm disc) | Inhibition zone (mm) ([2]; 1 mg/6 mm disc) | Inhibition zone (mm) ([2]; 10 mg/6 mm disc) | Inhibition zone (mm) ([3]; 0.1 mg/6 mm disc) | Inhibition zone (mm) ([3]; 1 mg/6 mm disc) | Inhibition zone (mm) ([3]; 10 mg/6 mm disc) | zone of inhibition at 3 mg/disc ([4]; Table 2, 3 mg/6 mm disk) [mm] | zone of inhibition at 10 mg/disc ([4]; Table 2, 10 mg/6 mm disk) [mm] | zone of inhibition at 30 mg/disc ([4]; Table 2, 30 mg/6 mm disk) [mm] | zone of inhibition at 100 mg/disc ([4]; Table 2, 100 mg/6 mm disk) [mm] | further results
CC[C@H]1OC(=O)C[C@@H](O)[C@H](C)[C@@H](O[C@@H]2OC(C)[C@@H](O)C(N(C)C)C2O)[C@@H](CCn2cc(CCCCCl)nn2)C[C@@H](C)C(=O)/C=C/C(C)=C/[C@@H]1CO[C@@H]1OC(C)[C@@H](O)C(OC)C1OC (some centres unmarked) [YT19, 20-(4-(4-chlorobutyl)-1H-1,2,3-triazol-1-yl)-20-deoxodesmycosin] | 7 | 14.5 | 23 | 13 | 19 | 26 | 7 | 10.5 | 15 | 14 | 16 | 18 | 21 | –
CC[C@H]1OC(=O)C[C@@H](O)[C@H](C)[C@@H](O[C@@H]2O[C@H](C)[C@@H](O)[C@H](N(C)C)[C@H]2O)[C@@H](CCCl)C[C@@H](C)C(=O)/C=C/C(C)=C/[C@@H]1CO[C@@H]1O[C@H](C)[C@@H](O)[C@@H](OC)[C@H]1OC [YT8, 20-chloro-20-deoxodesmycosin] | – | – | – | – | – | – | – | – | – | – | – | – | – | Inhibition zone (mm) ([5]; Table 3, 30 mg/6 mm disk): 11.0 mm; Inhibition zone (mm) ([5]; Table 3, 100 mg/6 mm disk): 14.5 mm; Inhibition zone (mm) ([4]; Table 2, 10 mg/6 mm disk): 12.5 mm; Inhibition zone (mm) ([4]; Table 2, 30 mg/6 mm disk): 18.0 mm; Inhibition zone (mm) ([4]; Table 2, 100 mg/6 mm disk): 20.0 mm
CC[C@H]1OC(=O)C[C@@H](O)[C@H](C)[C@@H](O[C@@H]2OC(C)[C@@H](O)C(N(C)C)C2O)[C@@H](CCn2cc(-c3ccc(N(C)C)cc3)nn2)C[C@@H](C)C(=O)/C=C/C(C)=C/[C@@H]1CO[C@@H]1OC(C)[C@@H](O)C(OC)C1OC (some centres unmarked) [YT29, 20-(4-(4-dimethylaminophenyl)-1H-1,2,3-triazol-1-yl)-20-deoxodesmycosin] | 7 | 15 | 24 | 11 | 19.5 | 25.5 | 7 | 10 | 15 | 13.5 | 16 | 17.5 | 20 | –
CC[C@H]1OC(=O)C[C@@H](O)[C@H](C)[C@@H](O[C@@H]2OC(C)[C@@H](O)C(N(C)C)C2O)[C@@H](CCn2cc(-c3ccccc3)nn2)C[C@@H](C)C(=O)/C=C/C(C)=C/[C@@H]1CO[C@@H]1OC(C)[C@@H](O)C(OC)C1OC (some centres unmarked) [YT13, 20-(4-phenyl-1H-1,2,3-triazol-1-yl)-20-deoxodesmycosin] | 8 | 17 | 23.5 | 15 | 21.5 | 27.5 | 9.5 | 12 | 15.5 | 15 | 16 | 18 | 21 | zone of inhibition at 1 mg/disc ([4]; Table 2): 11 mm
CC[C@H]1OC(=O)C[C@@H](O)[C@H](C)[C@@H](O[C@@H]2O[C@H](C)[C@@H](O)[C@H](N(C)C)[C@H]2O)[C@@H](CC=O)C[C@@H](C)C(=O)/C=C/C(C)=C/[C@@H]1CO[C@@H]1O[C@H](C)[C@@H](O)[C@@H](OC)[C@H]1OC [YT6, Desmycosin] | – | – | – | – | – | – | – | – | – | – | – | – | – | Inhibition zone (mm) ([5]; Table 3, 3 mg/6 mm disk): 8.5 mm; Inhibition zone (mm) ([5]; Table 3, 10 mg/6 mm disk): 13.5 mm; Inhibition zone (mm) ([5]; Table 3, 30 mg/6 mm disk): 17.5 mm; Inhibition zone (mm) ([5]; Table 3, 100 mg/6 mm disk): 21.0 mm; Inhibition zone (mm) ([4]; Table 2, 30 mg/6 mm disk): 10.5 mm
CC[C@H]1OC(=O)C[C@@H](O)[C@H](C)[C@@H](O[C@@H]2OC(C)[C@@H](O)C(N(C)C)C2O)[C@@H](CCn2cc(-c3ccccn3)nn2)C[C@@H](C)C(=O)/C=C/C(C)=C/[C@@H]1CO[C@@H]1OC(C)[C@@H](O)C(OC)C1OC (some centres unmarked) [YT12, 20-(4-(pyridine-2-yl)-1H-1,2,3-triazol-1-yl)-20-deoxodesmycosin] | 7 | 12.5 | 27 | 12 | 18.5 | 25 | 7 | 12.5 | 14 | 13 | 17 | 19 | 22 | zone of inhibition at 1 mg/disc ([4]; Table 2): 9 mm
CCC1OC(=O)CC(O)C(C)C(OC2OC(C)C(O)C(N(C)C)C2O)C(CC=O)CC(C)C(=O)C=CC(C)=CC1CN=[N+]=[N-] (centres unmarked) [YT107, 23-azido-23-deoxo-5-O-mycaminosyltylonolide] | – | – | – | – | – | – | – | – | – | – | – | – | – | Inhibition zone (mm) ([5]; Table 5, 30 mg/6 mm disk): 10.5 mm; Inhibition zone (mm) ([5]; Table 5, 100 mg/6 mm disk): 15.0 mm; Inhibition zone (mm) ([4]; Table 4, 3 mg/6 mm disk): 12.0 mm; Inhibition zone (mm) ([4]; Table 4, 10 mg/6 mm disk): 16.0 mm; Inhibition zone (mm) ([4]; Table 4, 30 mg/6 mm disk): 18.0 mm; Inhibition zone (mm) ([4]; Table 4, 100 mg/6 mm disk): 21.5 mm
CC[C@H]1OC(=O)C[C@@H](O)[C@H](C)[C@@H](O[C@@H]2OC(C)[C@@H](O)C(N(C)C)C2O)[C@@H](CCn2cc(CNC)nn2)C[C@@H](C)C(=O)/C=C/C(C)=C/[C@@H]1CO[C@@H]1OC(C)[C@@H](O)C(OC)C1OC (some centres unmarked) [YT30, 20-(4-(N-methyl-methylamine)-1H-1,2,3-triazol-1-yl)-20-deoxodesmycosin] | – | – | – | – | – | – | – | – | – | – | – | – | 10 | –
CC[C@H]1OC(=O)C[C@@H](O)[C@H](C)[C@@H](O[C@@H]2O[C@H](C)[C@@H](O)[C@H](N(C)C)[C@H]2O)[C@@H](CC=O)C[C@@H](C)C(=O)/C=C/C(C)=C/[C@@H]1CO [YT106, 5-O-mycaminosyltylonolide] | – | – | – | – | – | – | – | – | – | – | – | – | – | Inhibition zone (mm) ([5]; Table 5, 10 mg/6 mm disk): 9.0 mm; Inhibition zone (mm) ([5]; Table 5, 30 mg/6 mm disk): 13.0 mm; Inhibition zone (mm) ([5]; Table 5, 100 mg/6 mm disk): 17.0 mm; Inhibition zone (mm) ([4]; Table 4, 10 mg/6 mm disk): 8.5 mm; Inhibition zone (mm) ([4]; Table 4, 30 mg/6 mm disk): 12.5 mm; Inhibition zone (mm) ([4]; Table 4, 100 mg/6 mm disk): 15.0 mm
CCC1OC(=O)CC(O)C(C)C(OC2OC(C)C(O)C(N(C)C)C2O)C(CCN=[N+]=[N-])CC(C)C(=O)C=CC(C)=CC1COC1OC(C)C(O)C(OC)C1OC (centres unmarked) [YT11, 20-azido-20-deoxodesmycosin] | – | – | – | – | – | – | – | – | – | – | – | – | – | Inhibition zone (mm) ([5]; Table 3, 100 mg/6 mm disk): 11.0 mm; Inhibition zone (mm) ([4]; Table 2, 3 mg/6 mm disk): 10.0 mm; Inhibition zone (mm) ([4]; Table 2, 10 mg/6 mm disk): 13.0 mm; Inhibition zone (mm) ([4]; Table 2, 30 mg/6 mm disk): 16.0 mm; Inhibition zone (mm) ([4]; Table 2, 100 mg/6 mm disk): 18.0 mm
CC[C@H]1OC(=O)C[C@@H](O)[C@H](C)[C@@H](O[C@@H]2O[C@H](C)[C@@H](O)[C@H](N(C)C)[C@H]2O)[C@@H](CCn2cc(-c3ccccc3)nn2)C[C@@H](C)C(=O)/C=C/C(C)=C/[C@@H]1CN=[N+]=[N-] [YT114, 20-(4-phenyl-1H-1,2,3-triazol-1-yl)-20-deoxo-23-azido-23-deoxy-5-O-mycaminosyltylonolide] | – | – | – | – | – | – | – | – | – | – | – | – | – | Inhibition zone (mm) ([4]; Table 4, 3 mg/6 mm disk): 11.5 mm; Inhibition zone (mm) ([4]; Table 4, 10 mg/6 mm disk): 17.5 mm; Inhibition zone (mm) ([4]; Table 4, 30 mg/6 mm disk): 21.0 mm; Inhibition zone (mm) ([4]; Table 4, 100 mg/6 mm disk): 21.0 mm
